Experimental data reported in patent US8426345B2, “Method of drug design” (Alchemia Limited, priority 2005, dated 2013).

Molecular target: T1, Human SST5 somatostatin receptor (Homo sapiens, UniProt P35346)
T1 construct: expressed in transfected cells; host or cells: HEK-293 EBNA cells (membranes)
Assay: Filter plate radio-ligand binding assay for SST5 receptor ([125I]SST-14 displacement)
Details: for % SST5 radio-ligand binding displaced at conc 0.25: conc 0.25 μM; for % SST5 radio-ligand binding displaced at conc 0.25 / % SST5 radio-ligand binding displaced at conc 1.0: 3P library; for % SST5 radio-ligand binding displaced at conc 1.0: conc 1.0 μM; for % SST5 radio-ligand binding displaced at conc 50: compound conc 50 μM; for % SST5 radio-ligand binding displaced at conc 50 / % SST5 radio-ligand binding displaced at conc 250 / % SST5 radio-ligand binding displaced at conc 500: 2P library; for % SST5 radio-ligand binding displaced at conc 250: compound conc 250 μM; for % SST5 radio-ligand binding displaced at conc 500: compound conc 500 μM

T1 sequence (P35346 whole entry): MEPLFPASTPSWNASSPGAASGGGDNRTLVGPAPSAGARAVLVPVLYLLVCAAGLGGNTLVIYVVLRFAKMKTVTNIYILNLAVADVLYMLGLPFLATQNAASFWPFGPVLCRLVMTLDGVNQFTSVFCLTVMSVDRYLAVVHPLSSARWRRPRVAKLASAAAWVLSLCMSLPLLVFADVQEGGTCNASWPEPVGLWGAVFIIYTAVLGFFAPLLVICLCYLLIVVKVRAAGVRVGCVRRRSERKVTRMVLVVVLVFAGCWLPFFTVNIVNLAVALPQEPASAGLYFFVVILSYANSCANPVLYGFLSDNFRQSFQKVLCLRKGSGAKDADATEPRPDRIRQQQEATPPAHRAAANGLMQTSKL

## COC[C@H]1OC(OCc2ccc(Cl)cc2)[C@H](NC(=O)CN)[C@@H](OCc2ccc(Cl)cc2)[C@@H]1O (single isomer, unassigned) [Compound 170]
  % SST5 radio-ligand binding displaced at conc 0.25: − (% SST5 radio-ligand binding displaced at cone (μM) −<40%)
  % SST5 radio-ligand binding displaced at conc 1.0: − (% SST5 radio-ligand binding displaced at cone (μM) −<40%)

## COC[C@H]1OC(OCc2ccc(Cl)cc2)[C@H](NC(=O)CN)[C@@H](OCc2ccc(Cl)cc2)[C@@H]1O (single isomer, unassigned) [Compound 171]
  % SST5 radio-ligand binding displaced at conc 0.25: − (% SST5 radio-ligand binding displaced at cone (μM) −<40%)
  % SST5 radio-ligand binding displaced at conc 1.0: − (% SST5 radio-ligand binding displaced at cone (μM) −<40%)

## COC[C@H]1OC(OCc2ccc(Cl)cc2)[C@H](NC(=O)CN)[C@@H](OCc2ccc(-c3ccccc3)cc2)[C@@H]1O (single isomer, unassigned) [Compound 172]
  % SST5 radio-ligand binding displaced at conc 0.25: − (% SST5 radio-ligand binding displaced at cone (μM) −<40%)
  % SST5 radio-ligand binding displaced at conc 1.0: − (% SST5 radio-ligand binding displaced at cone (μM) −<40%)

## COC[C@H]1O[C@H](OCc2ccc3ccccc3c2)[C@H](NC(=O)CCN)[C@@H](OC)[C@@H]1O [Compound 5]
  % SST5 radio-ligand binding displaced at conc 50: − (% SST5 radio-ligand binding displaced at cone (μM) −<40%)
  % SST5 radio-ligand binding displaced at conc 250: + (% SST5 radio-ligand binding displaced at cone (μM) 60>+>40%)
  % SST5 radio-ligand binding displaced at conc 500: ++ (% SST5 radio-ligand binding displaced at conc (μM) >60%)

## COC[C@H]1O[C@H](OCc2ccc3ccccc3c2)[C@H](NC(=O)CCCN)[C@@H](OC)[C@@H]1O [Compound 6]
  % SST5 radio-ligand binding displaced at conc 50: − (% SST5 radio-ligand binding displaced at cone (μM) −<40%)
  % SST5 radio-ligand binding displaced at conc 250: + (% SST5 radio-ligand binding displaced at cone (μM) 60>+>40%)
  % SST5 radio-ligand binding displaced at conc 500: ++ (% SST5 radio-ligand binding displaced at conc (μM) >60%)

## CO[C@H]1[C@H](O)[C@@H](COCc2ccc(Cl)cc2)O[C@@H](SC)[C@@H]1NC(=O)CN [Compound 7]
  % SST5 radio-ligand binding displaced at conc 50: − (% SST5 radio-ligand binding displaced at cone (μM) −<40%)
  % SST5 radio-ligand binding displaced at conc 250: − (% SST5 radio-ligand binding displaced at cone (μM) −<40%)
  % SST5 radio-ligand binding displaced at conc 500: − (% SST5 radio-ligand binding displaced at cone (μM) −<40%)

## CO[C@H]1[C@H](O)[C@@H](COCc2ccc3ccccc3c2)O[C@@H](SC)[C@@H]1NC(=O)CN [Compound 8]
  % SST5 radio-ligand binding displaced at conc 50: − (% SST5 radio-ligand binding displaced at cone (μM) −<40%)
  % SST5 radio-ligand binding displaced at conc 250: + (% SST5 radio-ligand binding displaced at cone (μM) 60>+>40%)
  % SST5 radio-ligand binding displaced at conc 500: ++ (% SST5 radio-ligand binding displaced at conc (μM) >60%)

## COC[C@H]1O[C@@H](SC)[C@H](NC(=O)CN)[C@@H](OCc2ccc(Cl)cc2)[C@@H]1O [Compound 9]
  % SST5 radio-ligand binding displaced at conc 50: − (% SST5 radio-ligand binding displaced at cone (μM) −<40%)
  % SST5 radio-ligand binding displaced at conc 250: − (% SST5 radio-ligand binding displaced at cone (μM) −<40%)
  % SST5 radio-ligand binding displaced at conc 500: − (% SST5 radio-ligand binding displaced at cone (μM) −<40%)

## COC[C@H]1O[C@@H](SC)[C@H](NC(=O)CN)[C@@H](OCc2ccc3ccccc3c2)[C@@H]1O [Compound 10]
  % SST5 radio-ligand binding displaced at conc 50: − (% SST5 radio-ligand binding displaced at cone (μM) −<40%)
  % SST5 radio-ligand binding displaced at conc 250: − (% SST5 radio-ligand binding displaced at cone (μM) −<40%)
  % SST5 radio-ligand binding displaced at conc 500: − (% SST5 radio-ligand binding displaced at cone (μM) −<40%)

## COC[C@H]1O[C@H](OCc2ccc(Cl)cc2)[C@H](NC(=O)CN)[C@@H](OC)[C@@H]1O [Compound 11]
  % SST5 radio-ligand binding displaced at conc 50: − (% SST5 radio-ligand binding displaced at cone (μM) −<40%)
  % SST5 radio-ligand binding displaced at conc 250: − (% SST5 radio-ligand binding displaced at cone (μM) −<40%)
  % SST5 radio-ligand binding displaced at conc 500: − (% SST5 radio-ligand binding displaced at cone (μM) −<40%)

## COC[C@H]1O[C@H](OCc2ccc3ccccc3c2)[C@H](NC(=O)CN)[C@@H](OC)[C@@H]1O [Compound 12]
  % SST5 radio-ligand binding displaced at conc 50: − (% SST5 radio-ligand binding displaced at cone (μM) −<40%)
  % SST5 radio-ligand binding displaced at conc 250: − (% SST5 radio-ligand binding displaced at cone (μM) −<40%)
  % SST5 radio-ligand binding displaced at conc 500: − (% SST5 radio-ligand binding displaced at cone (μM) −<40%)

## COC[C@H]1O[C@@H](OCc2ccc(Cl)cc2)[C@H](NC(=O)CN)[C@@H](OC)[C@@H]1O [Compound 13]
  % SST5 radio-ligand binding displaced at conc 50: − (% SST5 radio-ligand binding displaced at cone (μM) −<40%)
  % SST5 radio-ligand binding displaced at conc 250: − (% SST5 radio-ligand binding displaced at cone (μM) −<40%)
  % SST5 radio-ligand binding displaced at conc 500: − (% SST5 radio-ligand binding displaced at cone (μM) −<40%)

## COC[C@H]1O[C@@H](OCc2ccc3ccccc3c2)[C@H](NC(=O)CN)[C@@H](OC)[C@@H]1O [Compound 14]
  % SST5 radio-ligand binding displaced at conc 50: − (% SST5 radio-ligand binding displaced at cone (μM) −<40%)
  % SST5 radio-ligand binding displaced at conc 250: − (% SST5 radio-ligand binding displaced at cone (μM) −<40%)
  % SST5 radio-ligand binding displaced at conc 500: − (% SST5 radio-ligand binding displaced at cone (μM) −<40%)

## CO[C@H]1[C@H](O)[C@@H](COCc2ccc(Cl)cc2)O[C@@H](SC)[C@@H]1NC(=O)CCN [Compound 15]
  % SST5 radio-ligand binding displaced at conc 50: − (% SST5 radio-ligand binding displaced at cone (μM) −<40%)
  % SST5 radio-ligand binding displaced at conc 250: − (% SST5 radio-ligand binding displaced at cone (μM) −<40%)
  % SST5 radio-ligand binding displaced at conc 500: − (% SST5 radio-ligand binding displaced at cone (μM) −<40%)

## CO[C@H]1[C@H](O)[C@@H](COCc2ccc3ccccc3c2)O[C@@H](SC)[C@@H]1NC(=O)CCN [Compound 16]
  % SST5 radio-ligand binding displaced at conc 50: − (% SST5 radio-ligand binding displaced at cone (μM) −<40%)
  % SST5 radio-ligand binding displaced at conc 250: − (% SST5 radio-ligand binding displaced at cone (μM) −<40%)
  % SST5 radio-ligand binding displaced at conc 500: + (% SST5 radio-ligand binding displaced at cone (μM) 60>+>40%)

## COC[C@H]1O[C@@H](SC)[C@H](NC(=O)CCN)[C@@H](OCc2ccc(Cl)cc2)[C@@H]1O [Compound 17]
  % SST5 radio-ligand binding displaced at conc 50: − (% SST5 radio-ligand binding displaced at cone (μM) −<40%)
  % SST5 radio-ligand binding displaced at conc 250: − (% SST5 radio-ligand binding displaced at cone (μM) −<40%)
  % SST5 radio-ligand binding displaced at conc 500: − (% SST5 radio-ligand binding displaced at cone (μM) −<40%)

## COC[C@H]1O[C@@H](SC)[C@H](NC(=O)CCN)[C@@H](OCc2ccc3ccccc3c2)[C@@H]1O [Compound 18]
  % SST5 radio-ligand binding displaced at conc 50: − (% SST5 radio-ligand binding displaced at cone (μM) −<40%)
  % SST5 radio-ligand binding displaced at conc 250: − (% SST5 radio-ligand binding displaced at cone (μM) −<40%)
  % SST5 radio-ligand binding displaced at conc 500: − (% SST5 radio-ligand binding displaced at cone (μM) −<40%)

## COC[C@H]1O[C@H](OCc2ccc(Cl)cc2)[C@H](NC(=O)CCN)[C@@H](OC)[C@@H]1O [Compound 19]
  % SST5 radio-ligand binding displaced at conc 50: − (% SST5 radio-ligand binding displaced at cone (μM) −<40%)
  % SST5 radio-ligand binding displaced at conc 250: − (% SST5 radio-ligand binding displaced at cone (μM) −<40%)
  % SST5 radio-ligand binding displaced at conc 500: ++ (% SST5 radio-ligand binding displaced at conc (μM) >60%)

## COC[C@H]1O[C@@H](OCc2ccc(Cl)cc2)[C@H](NC(=O)CCN)[C@@H](OC)[C@@H]1O [Compound 20]
  % SST5 radio-ligand binding displaced at conc 50: − (% SST5 radio-ligand binding displaced at cone (μM) −<40%)
  % SST5 radio-ligand binding displaced at conc 250: − (% SST5 radio-ligand binding displaced at cone (μM) −<40%)
  % SST5 radio-ligand binding displaced at conc 500: + (% SST5 radio-ligand binding displaced at cone (μM) 60>+>40%)

## COC[C@H]1O[C@@H](OCc2ccc3ccccc3c2)[C@H](NC(=O)CCN)[C@@H](OC)[C@@H]1O [Compound 21]
  % SST5 radio-ligand binding displaced at conc 50: − (% SST5 radio-ligand binding displaced at cone (μM) −<40%)
  % SST5 radio-ligand binding displaced at conc 250: + (% SST5 radio-ligand binding displaced at cone (μM) 60>+>40%)
  % SST5 radio-ligand binding displaced at conc 500: ++ (% SST5 radio-ligand binding displaced at conc (μM) >60%)

## CO[C@H]1[C@H](O)[C@@H](COCc2ccc(Cl)cc2)O[C@@H](SC)[C@@H]1NC(=O)CCCN [Compound 22]
  % SST5 radio-ligand binding displaced at conc 50: − (% SST5 radio-ligand binding displaced at cone (μM) −<40%)
  % SST5 radio-ligand binding displaced at conc 250: − (% SST5 radio-ligand binding displaced at cone (μM) −<40%)
  % SST5 radio-ligand binding displaced at conc 500: − (% SST5 radio-ligand binding displaced at cone (μM) −<40%)

## CO[C@H]1[C@H](O)[C@@H](COCc2ccc3ccccc3c2)O[C@@H](SC)[C@@H]1NC(=O)CCCN [Compound 23]
  % SST5 radio-ligand binding displaced at conc 50: − (% SST5 radio-ligand binding displaced at cone (μM) −<40%)
  % SST5 radio-ligand binding displaced at conc 250: − (% SST5 radio-ligand binding displaced at cone (μM) −<40%)
  % SST5 radio-ligand binding displaced at conc 500: + (% SST5 radio-ligand binding displaced at cone (μM) 60>+>40%)

## COC[C@H]1O[C@@H](SC)[C@H](NC(=O)CCCN)[C@@H](OCc2ccc(Cl)cc2)[C@@H]1O [Compound 24]
  % SST5 radio-ligand binding displaced at conc 50: − (% SST5 radio-ligand binding displaced at cone (μM) −<40%)
  % SST5 radio-ligand binding displaced at conc 250: − (% SST5 radio-ligand binding displaced at cone (μM) −<40%)
  % SST5 radio-ligand binding displaced at conc 500: − (% SST5 radio-ligand binding displaced at cone (μM) −<40%)

## COC[C@H]1O[C@@H](SC)[C@H](NC(=O)CCCN)[C@@H](OCc2ccc3ccccc3c2)[C@@H]1O [Compound 25]
  % SST5 radio-ligand binding displaced at conc 50: − (% SST5 radio-ligand binding displaced at cone (μM) −<40%)
  % SST5 radio-ligand binding displaced at conc 250: − (% SST5 radio-ligand binding displaced at cone (μM) −<40%)
  % SST5 radio-ligand binding displaced at conc 500: + (% SST5 radio-ligand binding displaced at cone (μM) 60>+>40%)

## COC[C@H]1O[C@@H](OCc2ccc(Cl)cc2)[C@H](NC(=O)CCCN)[C@@H](OC)[C@@H]1O [Compound 27]
  % SST5 radio-ligand binding displaced at conc 50: − (% SST5 radio-ligand binding displaced at cone (μM) −<40%)
  % SST5 radio-ligand binding displaced at conc 250: − (% SST5 radio-ligand binding displaced at cone (μM) −<40%)
  % SST5 radio-ligand binding displaced at conc 500: − (% SST5 radio-ligand binding displaced at cone (μM) −<40%)
